These results are taken from patent publication US20230331683A1, “INHIBITORS OF SPINSTER HOMOLOG 2 (SPNS2) FOR USE IN THERAPY” (University of Virginia Patent Foundation, priority 2020, published 2023).

By IC50 is commonly meant the concentration needed to halve the response being measured.

Counter-ions that a name gives are not always drawn.

Chain of mouse SPNS2 (Q91VM4 whole entry): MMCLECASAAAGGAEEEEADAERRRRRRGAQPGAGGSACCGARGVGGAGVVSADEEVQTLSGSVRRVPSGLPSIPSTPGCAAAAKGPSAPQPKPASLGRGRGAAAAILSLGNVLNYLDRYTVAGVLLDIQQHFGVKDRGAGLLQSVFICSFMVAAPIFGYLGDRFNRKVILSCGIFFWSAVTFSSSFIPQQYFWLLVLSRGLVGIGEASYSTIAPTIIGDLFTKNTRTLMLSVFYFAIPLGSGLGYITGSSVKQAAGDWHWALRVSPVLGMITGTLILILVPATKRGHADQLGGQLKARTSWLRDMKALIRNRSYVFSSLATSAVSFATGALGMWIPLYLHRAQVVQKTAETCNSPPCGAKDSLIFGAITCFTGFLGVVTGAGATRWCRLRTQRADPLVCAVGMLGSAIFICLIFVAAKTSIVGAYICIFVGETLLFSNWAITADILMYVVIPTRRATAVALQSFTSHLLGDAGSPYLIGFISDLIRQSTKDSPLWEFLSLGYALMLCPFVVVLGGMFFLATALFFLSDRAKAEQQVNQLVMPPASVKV

The target in this assay is mouse SPNS2 (Mus musculus (Mouse), UniProt Q91VM4). The assay can be described thus: S1P Transporter Assay (S1P release from whole cells expressing SPNS2). The note with it: in vitro inhibition against SPNS2; HeLa cells expressing mouse SPNS2, S1P release into media after 18 hours; compounds as their pharmaceutical salts. It is filed as cell-based. The method, then:
Transporter assays are vectorial and therefore require measurement of the transported analyte in different compartments. The S1P transporter SPNS2 only exports S1P, which obviates measuring uptake of S1P into transporter-expressing cells. Thus, transporter activity was determined by quantifying S1P release from whole cells expressing SPNS2. SPNS2 inhibitor potency was assessed using whole cell assays. HeLa cells expressing mouse SPNS2 were used to determine inhibitor potency (IC50). Cells were plated onto 12 well plates and assayed when the cell monolayers became confluent. Cell growth media (RPMI-1640 containing 10% fetal bovine serum) was replaced with 2 mL of serum-free media (RPMI-1640) containing fatty acid free bovine serum albumin (BSA) (0.2 % w/v) and supplemented with 4-deoxypyridoxine (DOP) (1 mM), NaF (2 mM), Na3VO4 (0.2 mM) to inhibit S1P degradation. Test articles (1 × 10-9 - 1 × 10^-4 M) were assayed in duplicate or triplicate. After 18 hours, media was collected, an internal recovery standard (0.005 mL of 5 × 10^-7 M deuterated (d7) S 1P in methanol) was added, the BSA was precipitated with trichloroacetic acid and the bound S1P extracted with methanol. S1P and S1P-d7 were measured by liquid chromatography mass spectrometry. Inhibitor potency at the human SPNS2 ortholog was determined by an analogous assay using U-937 cells, which endogenously express human SPNS2.
As for `CCCCCCCCCCc1ccc(NC(=O)[C@@H]2CCCNC2)cc1` [Compound 2a], the IC50 was more than 2000 nM.

Take `CCCCCCCCCCc1ccc(NC(=O)[C@@H]2CCNC2)cc1` [Compound 2b]: the IC50 is more than 2000 nM.

Regarding `CCCCCCCCCCc1ccc(NC(=O)CCCN)cc1` [Compound 2c, 4-amino-N-(4-decylphenyl)butanamide Hydrochloride], the IC50 was not above 2000 nM.

`CCCCCCCCCCc1ccc(NC(=O)CCN)cc1` [Compound 2d, 3-amino-N-(4-decylphenyl)propanamide Hydrochloride]: the IC50 is not above 2000 nM.

Take `CCCCCCCCCCc1ccc(NC(=O)CCCCN)cc1` [Compound 2e, 5-amino-N-(4-decylphenyl)pentanamide Hydrochloride]: the IC50 was more than 2000 nM.

With `CCCCCCCCCCc1ccc(NC(=O)CCCCCN)cc1` [Compound 2f, 6-amino-N-(4-decylphenyl)hexanamide Hydrochloride], the IC50 is not above 2000 nM.

`CCCCCCCCCc1ccc(NC(=O)CCCN)cc1` [Compound 2g, 4-amino-N-(4-nonylphenyl)butanamide Hydrochloride]: the IC50 is more than 2000 nM.

As for `CCCCCCCCc1ccc(NC(=O)CCCN)cc1` [Compound 2h, 4-amino-N-(4-octylphenyl)butanamide Hydrochloride], the IC50 was more than 2000 nM.

As for `CCCCCCCCCCc1ccc(NC(=O)C[C@@H]2CCNC2)cc1` [Compound 2i, (S)-N-decylphenyl)-2-(pyrrolidin-3-yl)acetamide Hydrochloride], the IC50 is not above 2000 nM.

For `CCCCCCCCCCc1ccc(NC(=O)C[C@H]2CCNC2)cc1` [Compound 2j, (R)-N-decylphenyl)-2-(pyrrolidin-3-yl)acetamide Hydrochloride], the IC50 was not above 2000 nM.

As for `CCCCCCCCCCc1ccc(NC(=O)CCCN)c(F)c1` [Compound 2l, amino-N-decyl-2-fluorophenyl)butanamide Hydrochloride], the IC50 is more than 2000 nM.

For `CCCCCCCCCOc1ccc(NC(=O)CCCN)cc1C(F)(F)F` [Compound 2m, 4-amino-N-(4-(nonyloxy)-3-(trifluoromethyl)phenyl)butanamide hydrochloride], the half-inhibitory concentration (IC50) is more than 2000 nM.

For the compound `CCCCCCCCCCc1ccc(NC(=O)CCCNC)cc1` [Compound 2n, N-decylphenyl)-4-(methylamino)butanamide Hydrochloride], the IC50 is more than 2000 nM.

In the case of `CCCCCCCCCCc1ccc(NC(=O)C2CCNCC2)cc1` [Compound 2o, N-decylphenyl)piperidine-4-carboxamide Hydrochloride], the IC50 is more than 2000 nM.

In the case of `CCCCCCCCCCc1ccc(NC(=O)CCCN(C)C)cc1` [Compound 2p, 4-(dimethylamino)-N-(4-decylphenyl)butanamide Hydrochloride], the IC50 is more than 2000 nM.

`CCCCCCCCCCc1ccc(NC(=O)[C@@H]2CCCN(C(=N)N)C2)cc1` [Compound 4a, (R)carbamimidoyl-N-(4-decylphenyl)piperidine-3-carboxamide 2,2,2-trifluoroacetate]: the IC50 was not above 2000 nM.

On to `CCCCCCCCCCc1ccc(NC(=O)CCCNC(=N)N)cc1` [Compound 4c, N-decylphenyl)-4-guanidinobutanamide Hydrochloride], for which the IC50 was not above 2000 nM.

With `CCCCCCCCCCc1ccc2oc(CCN)nc2c1` [Compound 8a, 2-Decylbenzo[d]oxazol-2-yl)ethan-1-amine Hydrochloride], the half-maximal inhibitory concentration (IC50) is more than 2000 nM.

`CCCCCCCCCCc1ccc2oc(CCCN)nc2c1` [Compound 8b, 3-Decylbenzo[d]oxazol-2-yl)propan-1-amine Hydrochloride]: the IC50 is more than 2000 nM.

Turning to `CCCCCCCCCCc1ccc2oc(CCCCCN)nc2c1` [Compound 8c, 5-Decylbenzo[d]oxazol-2-yl)pentan-1-amine Hyrdrochloride], the IC50 was more than 2000 nM.

Regarding `CCCCCCCCCCc1ccc2nc(CCN)oc2c1` [Compound 8d, 2-Decylbenzo[d]oxazol-2-yl)ethan-1-amine Hydrochloride], the IC50 was more than 2000 nM.
